Assay results published in the NIST ThermoML archive (doi:10.1021/je200721d).

Assay: xn = mol fraction of the nth substance listed
Settings: Liquid, Vibrating tube method

CCCCCCCCCC [decane] + CCCCCC
Settings | mass density [kg/m3]
342.8 K, 1000 kPa, x2 = 0.8991 | 626.74
342.8 K, 2000 kPa, x2 = 0.8991 | 628.11
342.8 K, 3000 kPa, x2 = 0.8991 | 629.48
342.8 K, 4000 kPa, x2 = 0.8991 | 630.85
342.8 K, 5000 kPa, x2 = 0.8991 | 632.19
342.8 K, 6000 kPa, x2 = 0.8991 | 633.52
342.8 K, 7000 kPa, x2 = 0.8991 | 634.85
342.8 K, 8000 kPa, x2 = 0.8991 | 636.16
342.8 K, 9000 kPa, x2 = 0.8991 | 637.46
342.8 K, 10000 kPa, x2 = 0.8991 | 638.73
342.8 K, 11000 kPa, x2 = 0.8991 | 639.99
342.8 K, 12000 kPa, x2 = 0.8991 | 641.23
342.8 K, 13000 kPa, x2 = 0.8991 | 642.43
342.8 K, 14000 kPa, x2 = 0.8991 | 643.64
342.8 K, 15000 kPa, x2 = 0.8991 | 644.8
342.8 K, 16000 kPa, x2 = 0.8991 | 645.95
342.8 K, 17000 kPa, x2 = 0.8991 | 647.07
342.8 K, 18000 kPa, x2 = 0.8991 | 648.18
342.8 K, 19000 kPa, x2 = 0.8991 | 649.24
342.8 K, 20000 kPa, x2 = 0.8991 | 650.3
342.8 K, 21000 kPa, x2 = 0.8991 | 651.32
342.8 K, 22000 kPa, x2 = 0.8991 | 652.31
342.8 K, 23000 kPa, x2 = 0.8991 | 653.28
342.8 K, 24000 kPa, x2 = 0.8991 | 654.23
342.8 K, 25000 kPa, x2 = 0.8991 | 655.16
343.05 K, 1000 kPa, x2 = 0.0456 | 690.21
343.05 K, 2000 kPa, x2 = 0.0456 | 691.25
343.05 K, 3000 kPa, x2 = 0.0456 | 692.26
343.05 K, 4000 kPa, x2 = 0.0456 | 693.3
343.05 K, 5000 kPa, x2 = 0.0456 | 694.32
343.05 K, 6000 kPa, x2 = 0.0456 | 695.32
343.05 K, 7000 kPa, x2 = 0.0456 | 696.31
343.05 K, 8000 kPa, x2 = 0.0456 | 697.29
343.05 K, 9000 kPa, x2 = 0.0456 | 698.26
343.05 K, 10000 kPa, x2 = 0.0456 | 699.22
343.05 K, 11000 kPa, x2 = 0.0456 | 700.16
343.05 K, 12000 kPa, x2 = 0.0456 | 701.08
343.05 K, 13000 kPa, x2 = 0.0456 | 702
343.05 K, 14000 kPa, x2 = 0.0456 | 702.89
343.05 K, 15000 kPa, x2 = 0.0456 | 703.77
343.05 K, 16000 kPa, x2 = 0.0456 | 704.64
343.05 K, 17000 kPa, x2 = 0.0456 | 705.5
343.05 K, 18000 kPa, x2 = 0.0456 | 706.36
343.05 K, 19000 kPa, x2 = 0.0456 | 707.2
343.05 K, 20000 kPa, x2 = 0.0456 | 708.02
343.05 K, 21000 kPa, x2 = 0.0456 | 708.84
343.05 K, 22000 kPa, x2 = 0.0456 | 709.65
343.05 K, 23000 kPa, x2 = 0.0456 | 710.45
343.05 K, 24000 kPa, x2 = 0.0456 | 711.25
343.05 K, 25000 kPa, x2 = 0.0456 | 712.03
343.06 K, 1000 kPa, x2 = 0.2185 | 681.09
343.06 K, 1000 kPa, x2 = 0.7524 | 641.66
343.06 K, 2000 kPa, x2 = 0.2185 | 682.19
343.06 K, 2000 kPa, x2 = 0.7524 | 643.07
343.06 K, 3000 kPa, x2 = 0.2185 | 683.33
343.06 K, 3000 kPa, x2 = 0.7524 | 644.43
343.06 K, 4000 kPa, x2 = 0.2185 | 684.4
343.06 K, 4000 kPa, x2 = 0.7524 | 645.8
343.06 K, 5000 kPa, x2 = 0.2185 | 685.47
343.06 K, 5000 kPa, x2 = 0.7524 | 647.1
343.06 K, 6000 kPa, x2 = 0.2185 | 686.52
343.06 K, 6000 kPa, x2 = 0.7524 | 648.4
343.06 K, 7000 kPa, x2 = 0.2185 | 687.54
343.06 K, 7000 kPa, x2 = 0.7524 | 649.65
343.06 K, 8000 kPa, x2 = 0.2185 | 688.57
343.06 K, 8000 kPa, x2 = 0.7524 | 650.88
343.06 K, 9000 kPa, x2 = 0.2185 | 689.57
343.06 K, 9000 kPa, x2 = 0.7524 | 652.12
343.06 K, 10000 kPa, x2 = 0.2185 | 690.55
343.06 K, 10000 kPa, x2 = 0.7524 | 653.31
343.06 K, 11000 kPa, x2 = 0.2185 | 691.53
343.06 K, 11000 kPa, x2 = 0.7524 | 654.46
343.06 K, 12000 kPa, x2 = 0.2185 | 692.48
343.06 K, 12000 kPa, x2 = 0.7524 | 655.59
343.06 K, 13000 kPa, x2 = 0.2185 | 693.45
343.06 K, 13000 kPa, x2 = 0.7524 | 656.72
343.06 K, 14000 kPa, x2 = 0.2185 | 694.36
343.06 K, 14000 kPa, x2 = 0.7524 | 657.81
343.06 K, 15000 kPa, x2 = 0.2185 | 695.27
343.06 K, 15000 kPa, x2 = 0.7524 | 658.89
343.06 K, 16000 kPa, x2 = 0.2185 | 696.19
343.06 K, 16000 kPa, x2 = 0.7524 | 659.96
343.06 K, 17000 kPa, x2 = 0.2185 | 697.07
343.06 K, 17000 kPa, x2 = 0.7524 | 661
343.06 K, 18000 kPa, x2 = 0.2185 | 697.94
343.06 K, 18000 kPa, x2 = 0.7524 | 662.03
343.06 K, 19000 kPa, x2 = 0.2185 | 698.83
343.06 K, 19000 kPa, x2 = 0.7524 | 663.03
343.06 K, 20000 kPa, x2 = 0.2185 | 699.68
343.06 K, 20000 kPa, x2 = 0.7524 | 664.01
343.06 K, 21000 kPa, x2 = 0.2185 | 700.53
343.06 K, 21000 kPa, x2 = 0.7524 | 664.97
343.06 K, 22000 kPa, x2 = 0.2185 | 701.36
